Test results from a melting point compilation (Tetko et al.).

SMILES | melting point [°C]
N#CC1(c2ccc(F)cc2)CCCCC1 | 33 to 38
Nc1c(C=O)cc(C=O)c2nc(-c3ccccc3)c(-c3ccccc3)nc12 | 289
ClC1CCCC1 | -50
FC(F)(F)c1nn(CN2CCOCC2)c(=S)n1/N=C/c1ccc2c(c1)OCO2 | 183
CN1C(=N)NC(=O)C1Cc1ccc(O)cc1 (centres undefined) | 221 to 225
CC(C)CC1c2ccccc2-c2ccccc21 | 45
O=C(O)C1CCC1C(=O)O (centres undefined) | 131
NS(=O)(=O)c1cccc(/C(=N\O)c2ccccc2)c1 | 155
CSC#N | -5
O=C(CO)[C@@H](O[C@H]1O[C@H](CO)[C@@H](O)[C@H](O)[C@H]1O)[C@H](O)[C@H](O)CO | 168
Clc1cc(Cl)c2oc3cc(Cl)c(Cl)cc3c2c1 | 202
O=C(CNc1ccccc1)Nc1ccc(Br)cc1 | 154
CN1CCN(Cc2ccc(I)cc2)CC1 | 105 to 106
Cn1cnc(C=O)c1 | 68 to 69
NC(CCCCCC(=O)O)C(=O)O (racemic) | 223 to 225
ON=CNc1ccc(Cl)nn1 | 207 to 211
C=CC(=O)OCC(C)C | -61
CCc1ccccc1-n1c(C)nc2ccccc2c1=O | 81
CC(C)(C)C(=O)Cl | -56
O=[N+]([O-])c1cccc(-n2cccc2)c1 | 72 to 74
O=C(O)c1csc(N2CCOCC2)n1 | 175 to 177
BrCCCCCCCCCCCCCCBr | 50.4
O=C(Cl)c1ccc2nsnc2c1 | 111

The remaining lines, values ahead:

melting point [°C] | SMILES
87 to 90 | CC(=O)c1csc2ccc(Br)cc12
98 | CCN(CC)C(=O)CSc1ccc(Cl)nn1
91 | Cc1cc2ccccc2oc1=O
76 to 78 | O=C(O)CCc1ccccc1F
257 | Cc1ccc(Cl)c(Nc2ccccc2C(=O)O)c1Cl
155 to 156 | N#CC1=C(N)Oc2ccc(Cl)cc2C1C(C#N)C#N (centres undefined)
268 to 269 | O=C(O)C(c1ccccc1)(c1ccccc1)c1ccccc1
75 | O=C(C(=S)N1CCOCC1)c1ccccc1
100 | CC(=O)c1occc1O
57 to 57.5 | OC(c1ccc(Br)cc1)C1CC1 (centres undefined)
118 | Cc1cccc2cc3ccc4ccccc4c3cc12
188 to 190 | CCc1n[nH]c2cc(-c3ccccc3)nn12
115 | CCOc1ccc2c(C)cc(=O)oc2c1
101 | CC1CCC(C(C)C)C(OC(=O)C(Cc2ccccc2)c2ccccc2)C1 (centres undefined)
89 | OCCNC(CO)(CO)CO
294 | Cc1ccccc1Nc1[nH]c(=S)nnc1-c1ccccc1

melting point [°C] | SMILES
102 | CCCCC1C(=O)NN(c2ccccc2)C1=O (centres undefined)
84 | COc1cc(C=CC=O)ccc1O
180 | Cn1c(/C(C#N)=N/Nc2c(Br)cc(Br)cc2Br)nc2ccccc21
124 | CC(C(=O)O)c1ccc(C(=O)c2cccs2)cc1 (centres undefined)
100 | O=[N+]([O-])c1ccccc1C(O)C(O)c1ccccc1 (centres undefined)
198 to 202 | N#CCC(=O)Nc1ccccc1
197 | Cn1ccc2ccc(C(=O)O)cc21
71 to 75 | O=C=Nc1ccc(Br)cc1Cl
-40 | Ic1cccs1
215 to 216 | O=C(O)C=Cc1ccccc1Br
57 | BrCc1cccc(-c2cccs2)c1
31 | CCCCCC(O)CC(=O)CCc1ccc(OC)c(O)c1 (centres undefined)
102 | CC(COc1ccccc1)NC(C)C(O)c1ccc(O)cc1 (centres undefined)
28 | N#CCC(=O)OCc1ccccc1
304 | O=c1c(O)c(-c2ccc(O)cc2O)oc2cc(O)cc(O)c12
